Earlier results as cited in patent publication US12403291B2, “Submucosal bioresorbable drug eluting platform” (Intersect ENT, Inc., priority 2019, dated 2025).

Conditions: MF per gram of tissue

C[C@@H]1C[C@H]2[C@@H]3CCC4=CC(=O)C=C[C@]4(C)[C@@]3(Cl)[C@@H](O)C[C@]2(C)[C@@]1(OC(=O)c1ccco1)C(=O)CCl [Mometasone furoate, mometasone furoate]
concentration level of therapeutic effectiveness: 0.1 µg/g
